Source: US9551706B2, “Density-based methods for separation of materials, monitoring of solid supported reactions and measuring densities of small liquid volumes and solids” (President and Fellows of Harvard College, priority 2007, dated 2017)
One block for each molecule: values may come before it.

Tests used:
[1] = known value; cited from earlier work
[2] = Capillary electrophoresis (Job's plot) binding affinity of the DT3 ligand for Gd^3+ in methanol; conditions: 25° C., 1:1 complex with Gd^3+, read-out: dissociation constant (Kd)
Protocol: FIG. 11 is a plot of peak area of the Gd(DT3) by capillary electrophoresis vs. mole fraction of Gd^3+ and illustrates the Job's plot assay for determination of the stoichiometry of and dissociation constant for Gd(DT3) in methanol.
The binding affinity of the DT3 ligand for Gd^3+ and the stoichiometry of the Gd(DT3) complex was determined using capillary electrophoresis (CE). […] See, FIG. 11. […] Gadolinium(III) chloride (the source of Gd^3+ for these experiments) is insoluble in non-polar organic solvents; the dissociation constants was not measured in these solvents.

[3] = Magnetic susceptibility from levitation of a glass bead in solutions of the paramagnetic salt; type: physicochemical; conditions: four solutions 100-175 mM in 9:1 chlorobenzene-toluene, 23° C.
Protocol: The average magnetic susceptibility for solid Gd(DT3) (in the centimeter-gram-second system of units, cgs (cm^3/mol)) was determined by measuring the magnetic susceptibilities for solutions of Gd(DT3) (χl^SI, International System of Units), and by inputting these values into Equation (3). χl^SI=4πχl^CGS[Gd^3+] (3)
Magnetic susceptibility values were measured for solutions of Gd(DT3) (100-175 mM) in 9:1 chlorobenzene-toluene (23° C.) by levitating a glass bead (ρp=1.0900 g/cm^3) in these solutions (FIG. 12A). This mixture of solvents is adequate because it has a density (ρl=1.082±0.003 g/cm^3) slightly below the density of the glass bead that was used. The vertical position of the glass bead (z) in each solution was determined using a ruler, and the densities of the solutions were measured by weighing 1 mL samples. […]
The remaining variable in Equation (1) that required measuring before the calculation of χl^SI could be completed was the strength of the magnetic field at the surface of the magnet (Bmax). […] This value was determined using solutions of GdCl3 (70-100 mM) with known magnetic susceptibilities and by levitating a glass bead (ρp=1.0200 g/cm^3) in these solutions. […]
The calibrated value for Bmax was used to calculate the χl^SI values for the solutions of Gd(DT3) (using Equation (1) and values for ρl and z that were measured experimentally). […]

[4] = Label-free detection of streptavidin binding to solid-supported biotin by magnetic levitation
Source text: Beads of biotin-labeled PEGA polymer swell in water (unlike polystyrene-based solid supports), have a loading capacity of 0.2 mmol amine/g PEGA, and pores of sufficient size for ˜70 kDa proteins to access the biotin on the interior of the polymer. The sensitivity of detection depends directly on the loading capacity (i.e., surface density of reacting groups) of the beads and the molecular weight of the bound molecules. In initial experiments, precipitation was observed after adding proteins to the aqueous Gd^3+ solution, so a Gd3+·DTPA chelate was used instead.
Binding of streptavidin to solid-supported biotin was detected by incubating ˜20 water saturated polymer beads with 20 μL of 0.19-mM protein dissolved in 40-mM potassium phosphate buffer (pH 7.0). After 15 min the solution, was diluted to 1.5 mL to suspend the beads using 210-mM Gd^3+·DTPA in 40-mM potassium phosphate buffer (pH 7.5), and then added ˜20 more biotin-labeled polymer beads. The solution was mixed gently for 5 s with a spatula, and then the cuvette was inserted along the axis of the magnets. After approximately 30 min, all of the beads had clustered into two separate bands (FIG. 19A), the upper one levitating at the same height as the unlabeled PEGA polymer. […]

Molecule: [Cl][Mn][Cl] [MnCl2]
molar magnetic susceptibility of the solid salt [1]: 14350×10^−6 cm^3/mol

Molecule: diethylenetriamine triacetic acid tetradecane [DT3 ligand]
Kd [2]: 300 nM

Molecule: gadolinium(III) diethylenetriamine triacetic acid tetradecane [Gd(DT3)]
average molar magnetic susceptibility χl^CGS [3]: 0.036±0.003 cm^3/mol

non-specific adsorption to unlabeled PEGA polymer (control) ([4]; unlabeled PEGA polymer beads): no obvious non-specific adsorption
Molecule: streptavidin: a 53-kDa protein
binding to solid-supported biotin (levitation band) ([4]; biotin-labeled PEGA beads, 210-mM Gd^3+·DTPA, 40-mM potassium phosphate buffer): binding of streptavidin to the solid-supported biotin
